What all share (assay type): cell-based
Assay [1] deals with HeLa cells. Description: Kinetic profile of SYTO62 fluorescence under continuous illumination, HeLa cells treated with anticancer agent. As to conditions: 0.1 μM and 1 μM, 24 hours, 10 μM SYTO62, illumination 50 seconds at 488 nm. As to the method:
The intensity of fluorescence is then measured every second. Each intensity value is then expressed as a percentage of the first fluorescence value measured. (IF: intensity of fluorescence; T: illumination time). HeLa cells (Sigma-Aldrich) are plated into a 96-well format transparent-bottomed black microplate at 20000 cells per well the day before the experiment. […] The intensity of fluorescence emitted by the biosensor is then measured every second.

Another assay concerns HepG2 cells. As to the kind of experiment: Kinetic profile of SYTO13 fluorescence under continuous illumination, HepG2 cells treated with okadaic acid. As to conditions: 0.01, 0.031, 0.1, 0.31 and 1 μM, 24 hours, 2 μM final SYTO13, illumination 20 seconds at 488 nm. As to the method:
The cells were then labelled with a solution of SYTO13 of 2 μM final concentration then subjected to continuous illumination for 20 seconds. The intensity of fluorescence is then measured every 0.4 seconds. Each intensity value is then expressed as a percentage of the first fluorescence value measured. (IF: intensity of fluorescence; T: illumination time).
HepG2 cells (ATCC) are plated into a 96-well format transparent-bottomed black microplate at 20000 cells per well two days before the experiment. The day before the test the cells are or are not treated with 75 μl of 0.01, 0.031, 0.1, 0.31 and 1 μM solutions of okadaic acid (Sigma-Aldrich). The cells are incubated for 24 hours.
On the day of the test, the cells are labelled for 30 minutes at 37° C. with 25 μl of an 8 μM solution of SYTO13 (Invitrogen) (i.e. 2 μM final) prepared in MEM culture medium (Invitrogen).
The samples are placed under a fluorescence microscope at ×100 magnification then subjected to continuous illumination at 488 nm with a mercury lamp for 20 seconds. The intensity of fluorescence emitted by the biosensor is then measured every 0.4 seconds.

Assay [2] deals with HeLa cells. As to the kind of experiment: Kinetic profile of SYTO62 fluorescence under continuous illumination, HeLa cells treated with apoptotic agent. As to conditions: 7 hours, 10 μM SYTO62, illumination 40 seconds at 488 nm. As to the method:
HeLa cells were treated for 7 hours with (Δ, □, ⋄) or without (∘) 0.1 μM (Δ), 0.5 μM (□) and 1 μM (⋄) staurosporine. The cells were then labelled with a 10 μM solution of SYTO62 then subjected to continuous illumination for 40 seconds. The intensity of fluorescence is then measured every second. Each intensity value is then expressed as a percentage of the first fluorescence value measured. (IF: intensity of fluorescence; T: illumination time). HeLa cells (Sigma-Aldrich) are plated into a 96-well format transparent-bottomed black microplate at 20000 cells per well the day before the experiment. On the day of the test the cells are or are not treated with 0.1, 0.5 and 1 μM of staurosporine (Sigma-Aldrich) for 7 hours. The cells are then labelled for 20 minutes with 50 μl of a 10 μM solution of SYTO62 (Invitrogen) prepared in a buffer containing 25 mM Hepes, 140 mM NaCl, 1 mM EDTA and 0.1% bovine serum albumin (BSA), pH 7.4 (buffer A). The samples are placed under a fluorescence microscope (Leica DMIRB) at ×100 magnification then subjected to continuous illumination at 488 nm with a mercury lamp (HBO […]/2) for 40 seconds. The intensity of fluorescence emitted by the biosensor is then measured every second.

Assay [3] deals with HeLa cells. As to the kind of experiment: Kinetic profile of SYTO13 or SYTO15 fluorescence under continuous illumination, HeLa cells treated with apoptogenic agent. Conditions: 1 μM, 7 hours. Here is the method: HeLa cells were treated for 7 hours with (∘, Δ) or without ([…], ▴) 1 μM staurosporine. The cells were then labelled with a 10 μM solution of SYTO13 (Δ, ▴) or SYTO15 (∘, […]) then subjected to continuous illumination for 300 seconds. The intensity of fluorescence is then measured every 5 seconds. Each intensity value is then expressed as a percentage of the first fluorescence value measured. (IF: intensity of fluorescence; T: illumination time).
HeLa cells (Sigma-Aldrich) are plated into a 96-well format transparent-bottomed black microplate at 20000 cells per well the day before the experiment. On the day of the test the cells are or are not treated with 1 μM of staurosporine for 7 hours. The cells are then labelled for 20 minutes with 50 μl of a 10 μM solution of SYTO13 (Invitrogen) or SYTO15 (Invitrogen) prepared in buffer A.
The labelled cells are placed under a fluorescence reader of the Varioskan type (Thermo Electron Corporation) equipped with a Xenon Flash lamp. The samples labelled with SYTO13 and SYTO15 are then subjected for 300 seconds to continuous illumination at 488 nm and 516 nm respectively. The fluorescence intensities emitted by these biosensors are then measured every 5 seconds.

SMILES strings stand for the structures.

Turning to `CC(=O)O[C@H]1C(=O)[C@@]2(C)[C@H]([C@H](OC(=O)c3ccccc3)[C@]3(O)C[C@H](OC(=O)[C@H](O)[C@@H](NC(=O)c4ccccc4)c4ccccc4)C(C)=C1C3(C)C)[C@]1(OC(C)=O)CO[C@@H]1C[C@@H]2O` [Taxol, Paclitaxel], the “variation in fluorescence measured under illumination” value with HeLa cells [1] is “dose-dependent decrease in the variation in fluorescence”.

Take `C=C1[C@@H](O)[C@@H]2O[C@]3(CC[C@H](/C=C/[C@@H](C)[C@@H]4CC(C)=C[C@@]5(O[C@H](C[C@@](C)(O)C(=O)O)CC[C@H]5O)O4)O3)CC[C@H]2O[C@@H]1[C@@H](O)C[C@H](C)[C@H]1O[C@@]2(CCCCO2)CC[C@H]1C` [okadaic acid]: in the assay with HepG2 cells, the “variation in fluorescence measured under illumination” value is listed as “dose-dependent decrease in the variation in fluorescence”.

In the case of `CN[C@@H]1C[C@H]2O[C@@](C)([C@@H]1OC)n1c3ccccc3c3c4c(c5c6ccccc6n2c5c31)C(=O)NC4` [staurosporine], the “increase in the intensity of fluorescence measured under continuous illumination” value is recorded as “a weaker increase in fluorescence than in the untreated condition” with HeLa cells [2] (0.1 μM), “an increase in fluorescence is no longer measured” with HeLa cells [2] (0.5 μM) and “an increase in fluorescence is no longer measured” with HeLa cells [2] (1 μM). Also, the “increase in the fluorescence measured under continuous illumination” value with HeLa cells [3] (10 μM SYTO13, illumination 300 seconds at 488 nm) is given as “does not induce an increase in the fluorescence measured”; with HeLa cells [3] (10 μM SYTO15, illumination 300 seconds at 516 nm), “does not induce an increase in the fluorescence measured”.

(Values after patent US20130130238A1, “Fluorimetric Process for Evaluating the Influence of A Condition on A Biological Sample and Applications Thereof” (NOVALEADS, priority 2008, published 2013).)
